Test [1] addresses T1, cold-shock domain of LIN28A (Homo sapiens, UniProt Q9H9Z2).
T1 construct: cold shock domain construct LIN28 A (residues 16– 126)
T1 sequence (Q9H9Z2 16-126): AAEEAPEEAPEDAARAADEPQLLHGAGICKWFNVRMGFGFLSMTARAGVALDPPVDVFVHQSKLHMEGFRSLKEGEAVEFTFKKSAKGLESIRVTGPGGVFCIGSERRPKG
Nature of the test: Fluorescence quenching binding assay. The source says:
Figure S5. Fluorescence quenching assay measuring binding of PH-31 to the cold-shock domain of
(1 picture or pasted object on this page, not shown here)

The target in the next test is T2, LIN28–let-7 complex (Homo sapiens, UniProt Q9H9Z2).
T2 construct: Purified LIN28A (residues 16–187) was incubated at a concentration of 200 nM; His-tag (cleaved yes); made in house; host or cells: Escherichia coli BL21(DE3)
T2 sequence (Q9H9Z2 16-187): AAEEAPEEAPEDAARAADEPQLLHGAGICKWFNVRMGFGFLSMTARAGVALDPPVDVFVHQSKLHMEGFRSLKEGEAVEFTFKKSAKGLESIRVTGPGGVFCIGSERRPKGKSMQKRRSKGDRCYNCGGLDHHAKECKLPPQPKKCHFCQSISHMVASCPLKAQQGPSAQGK
Description: Electrophoretic mobility shift assay (EMSA). The test is classed as binding. The procedure:
was detected after incubation at room temperature using a TECAN Spark plate reader. Half maximal
inhibitory concentrations (IC50) were determined using GraphPad Prism 7.
Compound screening. High throughput screening was performed in low volume 384 well plates
(Corning 4514) with 30 µM compound, 40 nM LIN28A, and 2 nM preE-let-7f-1-FAM in FP assay
buffer. Compounds were transferred with an ECHO 520 liquid handler and protein and RNA were
added with a multidrop dispenser. Protein and RNA were added stepwise with a 30 min incubation
period in between. FP was detected after a final incubation of 15 min with an Envision plate reader
and fluorescence was measured with a Paradigm plate reader. A reaction without LIN28 served as a
negative control and one without compound was used as a positive control. The software Quattro
Workflow (Quattro Research GmbH) was used for the analysis of screening data.
Electrophoretic mobility shift assay. EMSA was used as a secondary assay to validate FP-assay hit
molecules. Purified LIN28A (residues 16–187) was incubated with compound and 5 U recombinant
ribonuclease inhibitor (Takara Bio) in EMSA reaction buffer (50 mM Tris (pH 7.5), 100 mM NaCl,
10 mM β-mercaptoethanol, 50 µM ZnCl2, 2 % DMSO, 0.01 % Tween 20, 12 % glycerol) for 2 hours
at room temperature. Subsequently, preE-let-7f-1-Cy3 (mus musculus) (GGGGUAGUGAUUUUAC
CCUGUUUAGGAGAU-Cy3, purchased from IDT) was added to a final concentration of 5 nM and
a reaction volume of 50 µL. The final concentration of LIN28A was 10 nM and compound
concentrations up to 75 µM were used. The reaction mixtures were incubated for a further 15 minutes
and 10 µL loading dye (40 % glycerol, 1.5x TAE) was added. 10 µL of each reaction was separated
in an 8 % polyacrylamide TAE gel at 4 °C and 220 V for 1 h using 0.25x TAE as running buffer. Cy3
fluorescence was detected with a ChemiDoc M P (Bio-Rad) and 2 minutes of exposure time.
Thermal shift assay. Thermal stability of the cold shock domain construct LIN28 A (residues 16–
126) with and without compound was monitored using a NanoTemper Prometheus NT.48 nano -
On the technique in general: A gel shift assay detects complexes by their altered migration in electrophoresis.

Broadly, the Kd is a measure of binding affinity in units of concentration. Low readings indicate higher affinity, high ones lower affinity. As a reminder, the IC50 is the point on the concentration scale where inhibition reaches its midpoint.

`O=C(C1=C(O)C(=O)N(c2ccc(O)c(C(=O)O)c2)C1c1ccc(-c2nccs2)cc1)c1ccc(Br)cc1` (stereo not drawn) [C902/PH-31] had a Kd in test [1] of 16.5 ± 2.8 µM. The “inhibition of the LIN28–let-7 complex in EMSA” value at LIN28–let-7 complex (compound concentrations up to 75 µM) was “dose-dependent micromolar inhibition”. Further, the IC50 at LIN28–let-7 complex (relative fluorescence intensity of let-7f divided by that of LIN28–let-7f complex plus let-7f) was 38 µM.

(Values after paper PMC8201479, “Trisubstituted Pyrrolinones as Small-Molecule Inhibitors Disrupting the Protein–RNA Interaction of LIN28 and Let-7” (ACS Medicinal Chemistry Letters, 2021).)
